Measured values published in patent US7825092B2, “Dendroaspis natriuretic peptide for treatment of cancer” (University of South Florida, priority 2006, dated 2010).

Columns and labels:
[1] = system: human glioblastoma cells (ATCC number CRL-11543); assay: number of human glioblastoma cells counted after incubation with peptide hormones; assay type: cell-based; settings: for decrease in number of human glioblastoma cells compared to control: at 96 hours (three days after 24 hours exposure); for number of glioblastoma cancer cells remaining (per field): 24 hours, mean±SEM, control 130±3 cells
Protocol: A cell line (ATCC number CRL-11543) of human glioblastoma cells were purchased from American Type Culture Collection (ATCC, Manassas, Va.). This glioblastoma cell line was deposited by the Ludwig Institute for Cancer Research, University of California at San Diego, La Jolla, Calif. This glioblastoma cell line produces angiogensis inhibiting factor.
Propagation of these human glioblastoma cells was in Dulbecco's modified Eagle's medium with 4 mM L-glutamine adjusted to contain 1.5 g/L sodium bicarconate and 4.5 g/L glucose supplemented with 1 μg/ml tetracycline, […], and 10% fetal bovine serum (Atlanta Biologicals, Lawrenceville, Ga.) at a temperature of 37° C. in a […] environment as recommended by the ATCC. Cells were dispensed in new flasks with subculturing two to three times per week.
After the glioblastoma cells were subcultured for 24 hours they were then seeded to coverslips in 24-well plates (Nunclon™, Roskilde, Denmark) with 1 mL of the above media. There were 65,000 cells seeded to each coverslip. After 24 hours, the well plates were washed twice with phosphate-buffered saline to remove the fetal bovine serum. Removal of serum was carried out to completely remove all variables (EGF, etc.) present in serum in order that interpretation of any data obtained would be straightforward. After 24 hours of serum deprivation, media volume was reduced to 250 μL per well with, or without, the respective peptide hormones in dose-response curves with concentrations up to and including 100 μM (1% of this volume). Human glioblastoma cells were then incubated for various periods of time (24, 48, 72, and 96 hours). The number of glioblastoma carcinoma cells were then counted with a cell counter (Thomas Scientific, Swedesboro, N.J.) evaluating ten fields of the microscope slide at ×40 along the X-axis with an Olympus BH-2 microscope (Atlanta, Ga.). This evaluation was repeated on six separate occasions with the number of human glioblastoma cells reflecting 60 observations for each group, i.e., 60 observations for controls and 60 observations for each of the five groups with respective peptide hormones. The peptide hormones used in this investigation were from Phoenix Pharmaceuticals, Inc., Belmont, Calif. In the Results section, the number of cancer cells reported is the number of cells in each individual field. Ten fields were examined on each microscope slide. The results of the ten fields were pooled and the average of the ten fields is illustrated in the Results section.
(§1) The data obtained in this investigation are illustrated as mean±SEM. Maximum changes in cell death (evaluated six times with ten areas of microscope slide evaluated each time) and DNA synthesis within groups were determined by a paired one-tailed Student's t test evaluated with statistical module of Excel software. To be considered statistically significant, we required a probability value to be <0.05 (95% confidence limits).

human glioblastoma cells = assay: DNA synthesis by bromodeoxyuridine (BrdU) incorporation; assay type: cell-based; settings: 1 μM, 24 hours
Protocol: To investigate whether these peptide hormones were inhibiting DNA synthesis, bromodeoxyuridine (BrdU) incorporation into the human glioblastoma cells was utilized as previously described from our laboratory. BrdU was from BD Bioscience, San Jose, Calif. After 24 hours in culture with 1 μM of LANP, vessel dilator, kaliuretic peptide, ANP, and DNP, respectively, or with no peptide hormone (i.e., control), BrdU in a final concentration of 10 μM in the cell culture medium was added for 45 minutes, which is the time in which the cells are in the logarithmic phase of cell proliferation.
as §1

[2] = human or animal subjects; cited from earlier work
[3] = system: human prostate cancer cells; settings: cited from earlier work
[4] = system: small-cell lung cancer cells; settings: 1 μM; cited from earlier work
[5] = system: human pancreatic adenocarcinoma cells; settings: 1 μM; cited from earlier work
[6] = system: human pancreatic adenocarcinomas; settings: in one week, athymic mice; cited from earlier work
human colon cancer cells = settings: within 24 hours; cited from earlier work
[7] = 1 μM, at 48 hours (24 hours exposure only)
[8] = 1 μM, at 72 hours (24 hours exposure only)
[9] = 10 μM, at 48 hours (24 hours exposure only)
[10] = 10 μM, at 72 hours (24 hours exposure only)
[11] = 100 μM, at 48 hours (24 hours exposure only)
[12] = 100 μM, at 72 hours (24 hours exposure only)

Compound | decrease in number of human glioblastoma cells compared to control ([1]; 1 μM) [%] | decrease in number of human glioblastoma cells compared to control ([1]; 10 μM) [%] | decrease in number of human glioblastoma cells compared to control ([1]; 100 μM) [%] | decrease in DNA synthesis (human glioblastoma cells) [%] | side effect hypotension [2] | decrease in number of human glioblastoma cells [1, 7] [%] | decrease in number of human glioblastoma cells [1, 8] [%] | decrease in number of human glioblastoma cells [1, 9] [%] | decrease in number of human glioblastoma cells [1, 10] [%] | decrease in number of human glioblastoma cells ([1]; 100 μM, at 24 hours) [%] | decrease in number of human glioblastoma cells [1, 11] [%] | decrease in number of human glioblastoma cells [1, 12] [%] | decrease in number of human glioblastoma cells ([1]; 1 μM, at 24 hours) [%] | decrease in number of human glioblastoma cells ([1]; 10 μM, at 24 hours) [%] | number of glioblastoma cancer cells remaining (per field) ([1]; 100 μM) [cells] | also measured
CC[C@H](C)[C@@H]1NC(=O)[C@H](CCCNC(=N)N)NC(=O)[C@H](CC(=O)O)NC(=O)[C@H](CCSC)NC(=O)[C@H](CCCNC(=N)N)NC(=O)CNC(=O)CNC(=O)[C@H](Cc2ccccc2)NC(=O)[C@@H](NC(=O)[C@H](CO)NC(=O)[C@H](CO)NC(=O)[C@H](CCCNC(=N)N)NC(=O)[C@H](CCCNC(=N)N)NC(=O)[C@H](CC(C)C)NC(=O)[C@@H](N)CO)CSSC[C@@H](C(=O)N[C@@H](CC(N)=O)C(=O)N[C@@H](CO)C(=O)N[C@@H](Cc2ccccc2)C(=O)N[C@@H](CCCNC(=N)N)C(=O)N[C@@H](Cc2ccc(O)cc2)C(=O)O)NC(=O)CNC(=O)[C@H](CC(C)C)NC(=O)CNC(=O)[C@H](CO)NC(=O)[C@H](CCC(N)=O)NC(=O)[C@H](C)NC(=O)CNC1=O [ANP, atrial natriuretic peptide] | 24 | 43 | 60 | 79 | observed | – | – | – | – | – | – | – | – | – | – | –
Dendroaspis natriuretic peptide [DNP] | 1 | 5 | 8 | 23 | – | 1 | 1 | 7 | 6 | 17 | 19 | 19 | – | – | – | concentration where first began to have an effect on glioblastoma cells [1]: 100 µM; difference in concentration with significant anticancer effects, DNP versus human cardiac hormones ([1]; DNP higher, human cardiac hormones lower): 100 fold; killing / elimination of human glioblastoma cells, up to ([1]; within 24 hours, maximum effect, concentration not given): up to 19%
brain natriuretic peptide [BNP, reference compound] | – | – | – | 23 | – | – | – | – | – | – | – | – | – | – | – | –
kaliuretic peptide | 25 | 40 | 64 | 77 | never | 32 | 32 | 51 | 52 | 68 | 68 | 68 | 33 | 51 | 43±2 | decrease in prostate adenocarcinoma cells ([3]; 1 μM): 30%; decrease in number of human glioblastoma cells ([1]; 1 μM, at 24 hours, listed as Kaliuretic peptide): 32%; decrease in small-cell lung cancer cells [4]: 30%; decrease in human pancreatic adenocarcinoma cells [5]: 37%
long acting natriuretic peptide (NPMYNAVSNADLMDFKNLLDHLEEKMPLED; Long-acting natriuretic peptide; UniProt P01160 26-55, looked up, fragment) [LANP, cardiac hormone, first 30 amino acids of the 126 a.a. atrial natriuretic peptide prohormone] | 24 | 39 | 61 | 65 | never | 31 | 31 | 50 | 50 | 65 | 65 | 66 | 31 | 49 | 43±2 | –
vessel dilator | 43 | 55 | 68 | 87 | never | 53 | 53 | 60 | 60 | 75 | 76 | 76 | 53 | 60 | 33±2 | decrease in number of human prostate cancer cells, up to ([3]; within 24 hours): up to 97%; lower concentration causing the same decrease as the other peptide hormones ([1]; within 24 hours, FIG. 2): 10 fold; decrease in tumor volume [6]: 49%; decrease in number of human colon cancer cells, up to (human colon cancer cells): up to 97%
